pEC50: −log10 of the molar value.
Test system: not listed separately
Experiment: XTT assay, cytotoxicity (cellular growth inhibition) in CEM-SS cells
Type: cell-based
Details: human
Text: (§1) One exemplary means to determine antiviral activity is with CEM-SS cells and virus (e.g., HIV-1RF) (MOI=0.01) using the XTT (2,3-bis[2-methoxy-4-nitro-5-sulfophenyl]-5-[(phenylamino)carbonyl]-2H-tetrazolium hydroxide) cytoprotection assay, as described by Rice (1993) PNAS 90:9721-9724, and Rice (1997) Antimicrob. Agents Chemother. […] Briefly, cells are infected with HIV-1RF (or other virus to be tested) in the presence of various dilutions of test compounds or control compounds. The cultures are incubated for seven days. […] The cell death is measured by XTT dye reduction. XTT is a soluble tetrazolium dye that measures mitochondrial energy output, similar to MTT. […] Individual assays are done in duplicate using a sister plate method.
as §1, with “{2,3-bis[2-methoxy-4-nitro-5-sulfophenyl]-5- -[(phenylamino)carbonyl]-2H-tetrazolium hydroxide}” for “(2,3-bis[2-methoxy-4-nitro-5-sulfophenyl]-5-[(phenylamino)carbonyl]-2H-tetrazolium hydroxide)”, “Proc. Natl. Acad. Sci. USA 90: 9721-9724,” for “PNAS 90:9721-9724,”, “Agents &” for “Agents”, “and controls.” for “or control compounds.”, “method. […] Compound numbers therein refer to the numbers used in FIG. 1.” for “method.”

| SMILES | IC50 at 7 days [µM] |
| --- | --- |
| CCCNC(=O)Sc1ccccc1C(=O)N[C@@H](C)C(N)=O [Compound 96] | 27.5 |
| CCCNC(=O)Sc1ccccc1C(=O)NCCC(N)=O [Compound 97] | 29 |
| NC(=O)CNC(=O)c1ccccc1SC(=O)OCCBr [Compound 101] | > 316 |
| NC(=O)CCNC(=O)c1ccccc1SC(=O)OCCBr [Compound 102] | > 316 |
| C[C@@H](NC(=O)c1ccccc1SC(=O)OCCBr)C(N)=O [Compound 103] | 254 |
| C[C@H](NC(=O)c1ccccc1SC(=O)OCCBr)C(N)=O [Compound 104] | 186 |
| NC(=O)CNC(=O)c1ccccc1SC(=O)NCCBr [Compound 110] | 5.23 |
| NC(=O)CCNC(=O)c1ccccc1SC(=O)NCCBr [Compound 111] | 4.9 |
| C[C@H](NC(=O)c1ccccc1SC(=O)NCCBr)C(N)=O [Compound 112] | 5.2 |

Test system: HIV-1RF
Experiment: XTT cytoprotection assay, CEM-SS cells infected with HIV-1RF
Type: cell-based
Details: HIV-1RF, CEM-SS cells
Text: as §1
as §1, with “{2,3-bis[2-methoxy-4-nitro-5-sulfophenyl]-5- -[(phenylamino)carbonyl]-2H-tetrazolium hydroxide}” for “(2,3-bis[2-methoxy-4-nitro-5-sulfophenyl]-5-[(phenylamino)carbonyl]-2H-tetrazolium hydroxide)”, “Proc. Natl. Acad. Sci. USA 90: 9721-9724,” for “PNAS 90:9721-9724,”, “Agents &” for “Agents”, “and controls.” for “or control compounds.”, “method. […] Compound numbers therein refer to the numbers used in FIG. 1.” for “method.”

| SMILES | Therapeutic Index |
| --- | --- |
| CCCNC(=O)Sc1ccccc1C(=O)N[C@@H](C)C(N)=O [Compound 96] | 21 |
| CCCNC(=O)Sc1ccccc1C(=O)NCCC(N)=O [Compound 97] | 53 |
| NC(=O)CNC(=O)c1ccccc1SC(=O)OCCBr [Compound 101] | 232 |
| NC(=O)CCNC(=O)c1ccccc1SC(=O)OCCBr [Compound 102] | 60.6 |
| C[C@@H](NC(=O)c1ccccc1SC(=O)OCCBr)C(N)=O [Compound 103] | 76 |
| C[C@H](NC(=O)c1ccccc1SC(=O)OCCBr)C(N)=O [Compound 104] | 160 |
| NC(=O)CNC(=O)c1ccccc1SC(=O)NCCBr [Compound 110] | 3.4 |
| NC(=O)CCNC(=O)c1ccccc1SC(=O)NCCBr [Compound 111] | 10 |
| C[C@H](NC(=O)c1ccccc1SC(=O)NCCBr)C(N)=O [Compound 112] | 5 |

Same assay, conditions: Human immunodeficiency virus 1, 168 h, read-out: EC50 (50% cytoprotection); HIV-1RF, CEM-SS cells, seven days, XTT

| pEC50 | SMILES |
| --- | --- |
| 5.88 | CCCNC(=O)Sc1ccccc1C(=O)N[C@@H](C)C(N)=O [Compound 96] |
| 6.26 | CCCNC(=O)Sc1ccccc1C(=O)NCCC(N)=O [Compound 97] |
| 5.87 | NC(=O)CNC(=O)c1ccccc1SC(=O)OCCBr [Compound 101] |
| 5.28 | NC(=O)CCNC(=O)c1ccccc1SC(=O)OCCBr [Compound 102] |
| 5.48 | C[C@@H](NC(=O)c1ccccc1SC(=O)OCCBr)C(N)=O [Compound 103] |
| 5.94 | C[C@H](NC(=O)c1ccccc1SC(=O)OCCBr)C(N)=O [Compound 104] |

Same assay, conditions: Human immunodeficiency virus 1, CEM-SS, 168 h, read-out: EC50 (50% cytoprotection)

| SMILES | pEC50 |
| --- | --- |
| NC(=O)CNC(=O)c1ccccc1SC(=O)NCCBr [Compound 110] | 5.82 |
| NC(=O)CCNC(=O)c1ccccc1SC(=O)NCCBr [Compound 111] | 6.32 |
| C[C@H](NC(=O)c1ccccc1SC(=O)NCCBr)C(N)=O [Compound 112] | 5.98 |

— patent US7528274B2, “Acylthiols and component thiol compositions as anti-HIV and anti-retroviral agents” (The United States of America as represented by the …, priority 2001, dated 2009)
